Active and inactive are the calls of the source. No cut-off for these calls is given here.
How the values were obtained:
[1] = Chemical stability of the compound assessed as degradation at pH 6.8; assay type: physicochemical; conditions: buffer
[2] = Toxicity in mouse; assay type: organism-based; conditions: in vivo
[3] = biological target: T1, Leukotriene A-4 hydrolase (Homo sapiens) (UniProt P09960); experiment: Activation of aminopeptidase activity of LTA4H assessed as compound concentration required to 50% activation using L-alanine-p-nitroanilide as substrate by spectrophotometry
T1 sequence (whole entry): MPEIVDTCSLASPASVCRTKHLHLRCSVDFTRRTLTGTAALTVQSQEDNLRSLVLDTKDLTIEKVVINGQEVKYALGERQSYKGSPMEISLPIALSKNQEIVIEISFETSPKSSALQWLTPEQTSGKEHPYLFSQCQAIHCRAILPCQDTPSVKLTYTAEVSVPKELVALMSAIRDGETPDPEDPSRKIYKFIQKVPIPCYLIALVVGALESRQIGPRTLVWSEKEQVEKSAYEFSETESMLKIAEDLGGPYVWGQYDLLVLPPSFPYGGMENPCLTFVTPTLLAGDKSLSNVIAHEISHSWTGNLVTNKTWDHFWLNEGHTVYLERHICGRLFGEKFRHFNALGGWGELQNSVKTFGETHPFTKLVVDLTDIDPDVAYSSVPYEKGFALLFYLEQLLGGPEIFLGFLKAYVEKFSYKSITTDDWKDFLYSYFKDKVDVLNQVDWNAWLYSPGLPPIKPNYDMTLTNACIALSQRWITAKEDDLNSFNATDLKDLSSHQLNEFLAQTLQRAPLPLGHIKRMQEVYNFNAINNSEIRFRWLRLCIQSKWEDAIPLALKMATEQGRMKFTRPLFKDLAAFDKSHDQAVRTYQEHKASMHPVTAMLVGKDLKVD

[4] = tested on: Mus musculus; experiment: Antiemphysema activity in wild type mouse assessed as reduction in intranasal elastase-induced lung compliance at 30 mg/kg, ip qd for 28 days by flexivent relative to vehicle-treated control; assay type: functional, organism-based; set-up: dose 30 mg/kg
[5] = tested on: Mus musculus; experiment: Antiemphysema activity in wild type mouse assessed as reduction in intranasal elastase-induced lung volume at 30 mg/kg, ip qd for 28 days measured after 18 hrs of post mortem by volume displacement technique relative to vehicle-treated control; assay type: functional, organism-based; set-up: dose 30 mg/kg
[6] = tested on: Mus musculus; experiment: Antiemphysema activity in wild type mouse assessed as shorter chord length at 30 mg/kg, ip qd for 28 days measured after 18 hrs of post mortem by volume displacement technique relative to vehicle-treated control; assay type: functional, organism-based; set-up: dose 30 mg/kg
[7] = tested on: Mus musculus; experiment: Effect on intransal elastase-induced LTB4 level in broncho alveolar lavage fluid in ip dosed mouse by ELISA (reference value: 93.1 +/- 26.1 pg/mL); assay type: functional, organism-based

Activity [3] | Activity [7] | SMILES | Stability [1] | MTD [2] | Activity [4] | Activity [5] | Activity [6]
 |  | COc1ccc(Oc2ccccc2)cc1 | Unstable | 30 mg/kg |  |  | 
50 µM | inactive | COc1ccc(Cc2ccccc2)cc1 | Stable |  | Active | Active | Active

Reference: ChEMBL document CHEMBL1914340, “Effect of the leukotriene A4 hydrolase aminopeptidase augmentor 4-methoxydiphenylmethane in a pre-clinical model of pulmonary emphysema” (Bioorg Med Chem Lett, 2011)
